Assay: xn = mol fraction of the nth substance listed

ClC(Cl)Cl + CCCCCCCCO
viscosity [mPa·s], 101 kPa
Settings | 303.15 K | 313.15 K
x1 = 0.0471 | 5.924 | 4.259
x1 = 0.0996 | 5.36 | 3.883
x1 = 0.149 | 4.852 | 3.545
x1 = 0.1997 | 4.346 | 3.212
x1 = 0.2493 | 3.898 | 2.902
x1 = 0.3001 | 3.475 | 2.593
x1 = 0.3529 | 3.039 | 2.315
x1 = 0.4037 | 2.666 | 2.07
x1 = 0.4548 | 2.332 | 1.823
x1 = 0.5001 | 2.062 | 1.648
x1 = 0.555 | 1.772 | 1.426
x1 = 0.5995 | 1.552 | 1.273
x1 = 0.6467 | 1.37 | 1.134
x1 = 0.7001 | 1.171 | 0.987
x1 = 0.7484 | 1.036 | 0.883
x1 = 0.7997 | 0.929 | 0.769
x1 = 0.8451 | 0.804 | 0.704
x1 = 0.9007 | 0.693 | 0.627
x1 = 0.9494 | 0.616 | 0.555

CC(=O)OCc1ccccc1 + CCCCCO
viscosity [mPa·s], 101.33 kPa
Settings | x1 = 0.1074 | x1 = 0.2083 | x1 = 0.2988 | x1 = 0.4051 | x1 = 0.5012 | x1 = 0.6057 | x1 = 0.7115 | x1 = 0.8097 | x1 = 0.9004
293.15 K | 3.865 | 3.649 | 3.465 | 3.261 | 3.087 | 2.909 | 2.738 | 2.589 | 2.459
303.15 K | 2.789 | 2.661 | 2.551 | 2.427 | 2.321 | 2.21 | 2.103 | 2.009 | 1.926
313.15 K | 2.194 | 2.1 | 2.018 | 1.927 | 1.848 | 1.766 | 1.686 | 1.616 | 1.553
323.15 K | 1.296 | 1.288 | 1.281 | 1.274 | 1.266 | 1.259 | 1.251 | 1.244 | 1.237

CCCCCCCCCC(=O)OC + CCCCCO
viscosity [mPa·s], 100 kPa
Settings | x1 = 0.1 | x1 = 0.2 | x1 = 0.3 | x1 = 0.4 | x1 = 0.5 | x1 = 0.6 | x1 = 0.7 | x1 = 0.8001 | x1 = 0.9001
298.15 K | 2.764 | 2.385 | 2.169 | 2.028 | 1.946 | 1.892 | 1.866 | 1.859 | 1.875
303.15 K | 2.451 | 2.119 | 1.938 | 1.825 | 1.754 | 1.706 | 1.689 | 1.686 | 1.712
308.15 K | 2.158 | 1.892 | 1.741 | 1.646 | 1.588 | 1.549 | 1.535 | 1.536 | 1.555
313.15 K | 1.918 | 1.697 | 1.571 | 1.49 | 1.444 | 1.413 | 1.402 | 1.407 | 1.426
318.15 K | 1.713 | 1.529 | 1.423 | 1.358 | 1.32 | 1.293 | 1.288 | 1.292 | 1.312
323.15 K | 1.535 | 1.387 | 1.294 | 1.239 | 1.211 | 1.189 | 1.186 | 1.194 | 1.212

CC(=O)OCc1ccccc1 + CCCCO
viscosity [mPa·s], 101.33 kPa
Settings | x1 = 0.1023 | x1 = 0.1976 | x1 = 0.3075 | x1 = 0.4014 | x1 = 0.5022 | x1 = 0.5973 | x1 = 0.7048 | x1 = 0.8005 | x1 = 0.8914
293.15 K | 2.803 | 2.748 | 2.685 | 2.633 | 2.578 | 2.527 | 2.471 | 2.422 | 2.376
303.15 K | 2.224 | 2.18 | 2.129 | 2.087 | 2.043 | 2.002 | 1.957 | 1.918 | 1.881
313.15 K | 1.66 | 1.641 | 1.619 | 1.6 | 1.581 | 1.562 | 1.542 | 1.524 | 1.507
323.15 K | 1.104 | 1.116 | 1.131 | 1.144 | 1.158 | 1.172 | 1.187 | 1.201 | 1.214

CCCCCCCCCCCCCCCC + CCCCO
101 kPa
Settings | viscosity [mPa·s]
298.15 K, x2 = 0.3 | 2.675
323.15 K, x2 = 0.8 | 1.435

ClC(Cl)Cl + CCCCO
viscosity [mPa·s], 303.15 K
Settings | 101 kPa | 101.3 kPa
x2 = 0.0563 | 0.5315 | 0.5315
x2 = 0.0995 | 0.5491 | 0.5491
x2 = 0.1395 | 0.5709 | 0.5709
x2 = 0.1858 | 0.6001 | 0.6001
x2 = 0.2305 | 0.6329 | 0.6329
x2 = 0.2878 | 0.6839 | 0.6839
x2 = 0.301 | 0.6958 | 0.6958
x2 = 0.3666 | 0.7663 | 0.7663
x2 = 0.4891 | 0.9373 | 0.9373
x2 = 0.5662 | 1.076 | 1.076
x2 = 0.6718 | 1.314 | 1.314
x2 = 0.7659 | 1.574 | 1.574
x2 = 0.8333 | 1.78 | 1.78
x2 = 0.9386 | 2.107 | 2.107

ClC(Cl)Cl + CCCCn1cc[n+](C)c1.F[B-](F)(F)F
298.15 K, 101 kPa
Settings | viscosity [mPa·s]
x1 = 0.1079 | 92.5
x1 = 0.2033 | 73.3
x1 = 0.7028 | 9.24

CCCCCCCCCC(=O)OC + CCCO
viscosity [mPa·s], 100 kPa
Settings | x1 = 0.0999 | x1 = 0.1999 | x1 = 0.2999 | x1 = 0.3995 | x1 = 0.4995 | x1 = 0.599 | x1 = 0.6999 | x1 = 0.8002 | x1 = 0.8976
298.15 K | 1.745 | 1.671 | 1.648 | 1.652 | 1.676 | 1.702 | 1.746 | 1.788 | 1.859
303.15 K | 1.566 | 1.506 | 1.487 | 1.495 | 1.515 | 1.547 | 1.583 | 1.622 | 1.692
308.15 K | 1.408 | 1.361 | 1.35 | 1.36 | 1.38 | 1.413 | 1.442 | 1.482 | 1.546
313.15 K | 1.271 | 1.236 | 1.228 | 1.241 | 1.262 | 1.295 | 1.325 | 1.36 | 1.418
318.15 K | 1.151 | 1.124 | 1.124 | 1.136 | 1.161 | 1.19 | 1.216 | 1.252 | 1.304
323.15 K | 1.045 | 1.027 | 1.031 | 1.045 | 1.067 | 1.097 | 1.126 | 1.158 | 1.207

From the CheMixHub viscosity set
